Data as given in patent US10967078B2, “Radiolabelled mGluR2 PET ligands” (Janssen Pharmaceutica NV, priority 2014, dated 2021).

Legend:
[1] = biological target: mGlu4 (Homo sapiens, UniProt Q14833); assay: Selectivity for mGluR2 versus mGluR4; format: biochemical
[2] = biological target: mGlu7 (Homo sapiens, UniProt Q14831); assay: Selectivity for mGluR2 versus mGluR7; format: biochemical
[3] = biological target: mGlu3 (Homo sapiens, UniProt Q14832); assay: Selectivity for mGluR2 versus mGluR3; format: biochemical
Chain of mGlu3 (Q14832 23-879): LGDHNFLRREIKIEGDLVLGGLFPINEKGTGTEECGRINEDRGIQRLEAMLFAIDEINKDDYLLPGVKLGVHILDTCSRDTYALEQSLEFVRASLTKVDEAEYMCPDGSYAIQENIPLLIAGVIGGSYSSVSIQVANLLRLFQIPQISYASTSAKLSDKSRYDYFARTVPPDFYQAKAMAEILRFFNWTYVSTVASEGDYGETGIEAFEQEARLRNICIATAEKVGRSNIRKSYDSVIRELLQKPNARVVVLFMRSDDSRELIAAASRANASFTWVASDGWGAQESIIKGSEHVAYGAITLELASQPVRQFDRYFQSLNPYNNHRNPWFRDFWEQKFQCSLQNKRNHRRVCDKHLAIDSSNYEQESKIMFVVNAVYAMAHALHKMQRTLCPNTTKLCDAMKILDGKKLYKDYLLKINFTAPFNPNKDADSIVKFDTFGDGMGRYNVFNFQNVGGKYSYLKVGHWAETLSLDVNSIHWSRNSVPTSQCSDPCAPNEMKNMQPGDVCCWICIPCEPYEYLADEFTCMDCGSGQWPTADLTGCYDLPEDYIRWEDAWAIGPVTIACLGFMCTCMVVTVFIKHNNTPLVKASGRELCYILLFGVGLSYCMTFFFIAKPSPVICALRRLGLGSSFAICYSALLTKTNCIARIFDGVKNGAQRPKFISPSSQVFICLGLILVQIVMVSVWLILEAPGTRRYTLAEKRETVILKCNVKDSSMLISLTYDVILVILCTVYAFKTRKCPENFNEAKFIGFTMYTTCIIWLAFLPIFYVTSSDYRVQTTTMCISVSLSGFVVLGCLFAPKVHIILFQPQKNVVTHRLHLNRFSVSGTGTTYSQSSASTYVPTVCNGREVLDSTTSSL

[4] = biological target: mGlu1 (Homo sapiens, UniProt Q13255); assay: Selectivity for mGluR2 versus mGluR1; format: biochemical
[5] = biological target: mGlu5 (Homo sapiens, UniProt P41594); assay: Selectivity for mGluR2 versus mGluR5; format: biochemical
Chain of mGlu5 (P41594 21-1212): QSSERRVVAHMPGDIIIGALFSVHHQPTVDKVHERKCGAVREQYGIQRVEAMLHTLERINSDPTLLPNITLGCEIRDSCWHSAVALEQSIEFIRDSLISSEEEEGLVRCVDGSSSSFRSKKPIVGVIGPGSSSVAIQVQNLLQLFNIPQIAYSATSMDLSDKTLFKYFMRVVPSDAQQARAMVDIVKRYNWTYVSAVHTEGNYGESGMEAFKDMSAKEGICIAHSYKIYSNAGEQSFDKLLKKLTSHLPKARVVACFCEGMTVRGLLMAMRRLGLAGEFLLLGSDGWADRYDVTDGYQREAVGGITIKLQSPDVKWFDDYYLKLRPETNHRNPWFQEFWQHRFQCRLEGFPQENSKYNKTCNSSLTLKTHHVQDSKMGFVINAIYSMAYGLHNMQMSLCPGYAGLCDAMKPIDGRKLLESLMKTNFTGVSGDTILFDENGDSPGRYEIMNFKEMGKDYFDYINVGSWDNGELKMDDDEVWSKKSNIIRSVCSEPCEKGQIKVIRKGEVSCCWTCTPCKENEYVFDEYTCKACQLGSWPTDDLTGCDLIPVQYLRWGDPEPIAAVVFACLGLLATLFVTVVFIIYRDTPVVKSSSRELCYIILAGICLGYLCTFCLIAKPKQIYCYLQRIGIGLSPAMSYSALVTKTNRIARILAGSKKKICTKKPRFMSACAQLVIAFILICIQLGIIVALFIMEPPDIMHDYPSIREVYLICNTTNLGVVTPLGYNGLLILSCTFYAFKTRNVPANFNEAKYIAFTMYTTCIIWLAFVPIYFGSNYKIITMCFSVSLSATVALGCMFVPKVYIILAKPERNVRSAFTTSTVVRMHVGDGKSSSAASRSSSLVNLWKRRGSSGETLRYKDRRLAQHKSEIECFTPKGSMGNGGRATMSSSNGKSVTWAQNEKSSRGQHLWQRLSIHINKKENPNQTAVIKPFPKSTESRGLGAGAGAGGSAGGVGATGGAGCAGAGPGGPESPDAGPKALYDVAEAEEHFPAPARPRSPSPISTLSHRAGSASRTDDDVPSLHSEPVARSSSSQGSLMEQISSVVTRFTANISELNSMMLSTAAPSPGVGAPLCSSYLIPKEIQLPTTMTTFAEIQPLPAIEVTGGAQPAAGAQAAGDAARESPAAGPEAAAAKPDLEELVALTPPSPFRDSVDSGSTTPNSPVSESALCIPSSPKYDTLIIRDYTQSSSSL

[6] = biological target: mGlu8 (Homo sapiens, UniProt O00222); assay: Selectivity for mGluR2 versus mGluR8; format: biochemical
Chain of mGlu8 (O00222 34-908): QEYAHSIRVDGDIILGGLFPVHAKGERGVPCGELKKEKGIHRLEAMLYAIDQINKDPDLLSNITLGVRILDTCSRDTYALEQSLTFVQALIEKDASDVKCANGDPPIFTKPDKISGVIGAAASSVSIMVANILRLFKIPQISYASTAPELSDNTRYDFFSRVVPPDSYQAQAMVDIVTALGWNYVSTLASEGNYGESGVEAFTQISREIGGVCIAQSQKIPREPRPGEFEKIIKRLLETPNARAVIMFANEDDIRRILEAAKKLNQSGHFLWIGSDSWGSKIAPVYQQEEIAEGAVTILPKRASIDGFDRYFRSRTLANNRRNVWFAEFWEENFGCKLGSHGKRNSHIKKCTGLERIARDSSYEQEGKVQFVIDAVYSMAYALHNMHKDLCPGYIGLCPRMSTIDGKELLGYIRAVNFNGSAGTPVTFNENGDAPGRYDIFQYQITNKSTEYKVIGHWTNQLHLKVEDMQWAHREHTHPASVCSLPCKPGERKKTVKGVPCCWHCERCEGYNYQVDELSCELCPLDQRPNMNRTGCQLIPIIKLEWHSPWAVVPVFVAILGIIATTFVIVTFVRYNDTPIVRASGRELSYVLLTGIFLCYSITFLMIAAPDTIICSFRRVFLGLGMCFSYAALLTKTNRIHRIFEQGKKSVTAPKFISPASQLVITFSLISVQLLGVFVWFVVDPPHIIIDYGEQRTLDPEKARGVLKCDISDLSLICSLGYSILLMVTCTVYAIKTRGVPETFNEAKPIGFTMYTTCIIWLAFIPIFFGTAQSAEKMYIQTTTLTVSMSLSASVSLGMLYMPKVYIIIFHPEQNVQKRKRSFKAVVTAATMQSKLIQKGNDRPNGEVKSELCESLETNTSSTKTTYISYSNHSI

[7] = biological target: T1, human mGlu2 receptor (Homo sapiens, UniProt Q14416); assay: [35S]GTPγS binding assay, membranes from CHO cells transfected with the human mGlu2 receptor (NAM activity); format: biochemical
T1 construct: expressed in transfected cells; host or cells: CHO cells
Method: The [^35S]GTPγS binding assay is a functional membrane-based assay used to study G-protein coupled receptor (GPCR) function whereby incorporation of a non-hydrolysable form of GTP, [^35S]GTPγS (guanosine 5′-triphosphate, labelled with […] ^35S), is measured. The G-protein a subunit catalyzes the exchange of guanosine 5′-diphosphate (GDP) by guanosine triphosphate (GTP) and on activation of the GPCR by an agonist, [^35S]GTPγS, becomes incorporated and cannot be cleaved to continue the exchange cycle (Harper (1998) Current Protocols in Pharmacology 2.6.1-10, John Wiley & Sons, Inc.). […]
CHO-cells were cultured to pre-confluence and stimulated with 5 mM butyrate for 24 h. […] Protein concentration was determined by the Bradford method (Bio-Rad, USA) with bovine serum albumin as standard.
Measurement of mGluR2 negative allosteric modulatory activity of test compounds was performed as follows. […] Membrane-bound radioactivity was counted in a Topcount.
The concentration-response curves of representative compounds of the present invention were generated using the Lexis software interface (developed at J&J). Data were calculated as % of the control glutamate response, defined as the response that is generated upon addition of an EC80-equivalent concentration of glutamate. […] The concentration producing half-maximal inhibition was calculated as the IC50. […]

Chain of mGlu4 (Q14833 33-912): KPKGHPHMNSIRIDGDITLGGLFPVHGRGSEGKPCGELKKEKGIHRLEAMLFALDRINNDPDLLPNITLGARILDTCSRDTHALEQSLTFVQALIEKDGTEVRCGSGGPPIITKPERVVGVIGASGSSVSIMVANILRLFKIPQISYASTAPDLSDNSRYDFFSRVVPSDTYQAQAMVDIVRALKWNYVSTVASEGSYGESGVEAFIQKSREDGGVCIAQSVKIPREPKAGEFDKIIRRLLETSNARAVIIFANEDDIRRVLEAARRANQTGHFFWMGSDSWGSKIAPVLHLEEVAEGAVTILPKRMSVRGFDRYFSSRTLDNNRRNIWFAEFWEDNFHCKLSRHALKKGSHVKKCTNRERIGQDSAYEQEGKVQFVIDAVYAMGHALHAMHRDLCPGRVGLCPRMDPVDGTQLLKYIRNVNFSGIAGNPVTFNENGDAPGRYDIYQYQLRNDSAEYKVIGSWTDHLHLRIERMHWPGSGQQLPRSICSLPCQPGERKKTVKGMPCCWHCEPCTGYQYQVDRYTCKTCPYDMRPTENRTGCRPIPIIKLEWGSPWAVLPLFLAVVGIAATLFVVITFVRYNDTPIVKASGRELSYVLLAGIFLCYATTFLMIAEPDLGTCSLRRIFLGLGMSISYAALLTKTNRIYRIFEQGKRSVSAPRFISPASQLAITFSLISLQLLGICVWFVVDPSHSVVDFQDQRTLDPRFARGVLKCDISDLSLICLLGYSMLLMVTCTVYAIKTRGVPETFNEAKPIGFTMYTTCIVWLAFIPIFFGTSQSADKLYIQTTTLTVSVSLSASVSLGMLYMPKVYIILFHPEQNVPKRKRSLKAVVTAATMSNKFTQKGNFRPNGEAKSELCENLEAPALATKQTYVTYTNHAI
Chain of mGlu7 (Q14831 35-915): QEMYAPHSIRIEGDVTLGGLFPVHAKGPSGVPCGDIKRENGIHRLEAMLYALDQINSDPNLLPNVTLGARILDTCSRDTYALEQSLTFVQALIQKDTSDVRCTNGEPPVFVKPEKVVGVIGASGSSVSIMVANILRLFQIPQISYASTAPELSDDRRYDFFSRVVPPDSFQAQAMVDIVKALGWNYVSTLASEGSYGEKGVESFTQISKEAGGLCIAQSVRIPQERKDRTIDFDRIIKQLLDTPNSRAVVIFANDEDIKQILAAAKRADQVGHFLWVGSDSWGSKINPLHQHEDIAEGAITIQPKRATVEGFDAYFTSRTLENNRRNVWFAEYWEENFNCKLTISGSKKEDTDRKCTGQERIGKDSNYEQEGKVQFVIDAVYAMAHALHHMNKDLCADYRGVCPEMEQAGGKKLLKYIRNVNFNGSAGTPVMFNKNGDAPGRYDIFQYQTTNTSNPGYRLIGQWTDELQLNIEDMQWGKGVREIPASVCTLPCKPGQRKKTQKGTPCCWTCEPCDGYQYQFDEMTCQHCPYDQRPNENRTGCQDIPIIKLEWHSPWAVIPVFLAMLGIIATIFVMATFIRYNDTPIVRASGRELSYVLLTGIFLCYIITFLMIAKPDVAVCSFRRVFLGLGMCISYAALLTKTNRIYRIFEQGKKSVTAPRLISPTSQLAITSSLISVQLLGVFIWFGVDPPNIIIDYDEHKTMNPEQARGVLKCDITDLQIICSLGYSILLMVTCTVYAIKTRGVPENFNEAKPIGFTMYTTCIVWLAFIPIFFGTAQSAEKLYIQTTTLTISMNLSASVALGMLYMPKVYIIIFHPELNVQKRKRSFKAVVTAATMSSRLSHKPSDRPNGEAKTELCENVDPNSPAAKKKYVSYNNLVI

| SMILES | Selectivity over mGlu4 [1] | Selectivity over mGlu7 [2] | Selectivity over mGlu3 [3] | Selectivity over mGlu1 [4] | Selectivity over mGlu5 [5] | Selectivity over mGlu8 [6] | melting point [°C] | IC50 ([7]; glutamate 60 μM (~EC80), read-out: GTPγS - hmGluR2 anGT pIC50 (converted)) [nM] | Emax ([7]; maximal % inhibition relative to the control glutamate response, read-out: GTPγS - hmGluR2 anGT Emax) [%] |
| --- | --- | --- | --- | --- | --- | --- | --- | --- | --- |
| Cc1cc(-c2cnn3c2C(=O)N(c2ccc(C(F)(F)F)cc2)C[C@@H]3C)ccn1 [Co. No. 1, (7S)-7-Methyl-3-(2-methylpyridin-4-yl)-5-[4-(trifluoromethyl)phenyl]-6,7-dihydropyrazolo[1,5-a]pyrazin-4(5H)-one] | 5623.4 | 1122.0 | 25.7 | 1122.0 | 1122.0 | 1122.0 | – | – | – |
| C[C@H]1CN(c2ccc(Cl)c(Cl)c2)C(=O)c2c(-c3ccnc(F)c3)cnn21 [Co. No. 3, (7S)-5-(3,4-Dichlorophenyl)-3-(2-fluoro-4-pyridyl)-7-methyl-6,7-dihydropyrazolo[1,5-a]pyrazin-4-one] | 9120.1 | 1819.7 | 16.2 | 1819.7 | 1819.7 | 1819.7 | 170.3 | – | – |
| CNc1cc(-c2cnn3c2C(=O)N(c2ccc(S(F)(F)(F)(F)F)cc2)C[C@@H]3C)ccn1 [Co. No. 4, (7S)-7-Methyl-3-[2-(methylamino)-4-pyridyl]-5-[4-(pentafluoro-λ^6-sulfanyl)phenyl]-6,7-dihydropyrazolo[1,5-a]pyrazin-4-one] | – | – | 77.6 | – | – | – | – | 3.02 | 106 |
